Patent US6461997B1, “Triazole sulfones having herbicidal activity” (Monsanto Technology LLC, priority 1999, dated 2002)

Columns and labels:
DIGSA (large crabgrass) = assay: Pre-emergence herbicidal activity, warm season; type: in vivo, Digitaria sanguinalis; settings: GR80 = lowest tested rate (300, 100, 30, 10 g/ha) with 80% or greater inhibition; approx. 14 days after treating; 30/21° C.
How it was run: (§1)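 GR80 values, pre-emergence, soil applied at 300, 100, 30, 10 g/ha. Warm regime 30/21 °C: PANMI, DIGSA. Cool regime 18/13 °C: ALOMY, POLCO. Rating ~14 d, % inhibition vs untreated.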

[1] = system: CIRAR (canada thistle (seedling)); assay: Pre-emergence herbicidal activity, warm season; type: in vivo, Cirsium arvense; settings: GR80 = lowest tested rate (300, 100, 30, 10 g/ha) with 80% or greater inhibition; approx. 14 days after treating; 30/21° C.
How it was run: (§2)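 GR80 values derive from percent inhibition relative to untreated plants, read roughly 14 days after sowing and pre-emergence soil-surface treatment (compound in 50:50 acetone/water; rates typically 10, 30, 100, 300 g/ha). Warm-season weeds grew at 30/21° C day/night, cool-season ones at 18/13° C; an asterisk marks activity without reaching 80% at the highest rate.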

AVEFA (wild oat) = assay: Pre-emergence herbicidal activity, cool season; type: in vivo, Avena fatua; settings: GR80 = lowest tested rate (300, 100, 30, 10 g/ha) with 80% or greater inhibition; approx. 14 days after treating; 18/13° C.
Protocol: (§3) Tables 5 to 8 summarize results of tests conducted as described below to determine the pre-emergence herbicidal activity, in the form of a GR80 value, of illustrative compounds of this invention. […] Compounds of the invention were typically applied at rates of 300, 100, 30, and 10 g/ha. Where herbicidal activity was evident but 80% inhibition was not achieved at the highest rate tested, an asterisk (*) is shown in the following tables.
(§4) The pre-emergence tests were conducted by the following procedure. Topsoil was sieved to pass through a 1.27 cm screen. Fertilizer was added to the topsoil and the mixture was then sterilized by heating. The topsoil mixture was placed in a pot and compacted to a depth of 1.0 to 1.25 cm from the top of the pot. Seeds of each of several monocotyledonous and dicotyledonous annual plant species were placed on top of the soil. Additional soil was subsequently placed over the seeds to level-fill the pot. A known amount of each test compound dissolved or suspended in an appropriate organic solvent was diluted with a 50:50 mix of acetone and water and applied to the surface of the soil. After treatment the plants were placed in a greenhouse where they received 0.64 cm of overhead irrigation. All subsequent watering consisted of a light overhead mist and/or subirrigation as needed for germination and growth. Tables 5 and 6 below relate to warm season plant species which were placed after pre-emergence treatment in a greenhouse with a 30/21° C. day/night temperature regime. Tables 7 and 8 below relates to cool season plant species placed after pre-emergence treatment in a greenhouse or growth chamber with an 18/13° C. day/night temperature regime.
(§5) Approximately 14 days after planting and treating, the plants were observed and herbicidal efficacy recorded as percent inhibition by comparison with untreated plants.
(§6) The plant species usually regarded as weeds which were utilized in the tests are identified in the tables below according to the following legend, in which “d” indicates a dicotyledonous species and “m” a monocotyledonous species. All monocotyledonous species included in the tests herein are grasses.

ECHCG (barnyardgrass) = assay: Pre-emergence herbicidal activity, warm season; type: in vivo, Echinochloa crus-galli; settings: GR80 = lowest tested rate (300, 100, 30, 10 g/ha) with 80% or greater inhibition; approx. 14 days after treating; 30/21° C.
How it was run: (§7)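 Activity is expressed as the rate giving 80% inhibition, with 300, 100, 30 and 10 g/ha typically tested. An asterisk marks activity short of 80% at the top rate. Warm-season grasses were held at 30/21 °C; cool-season blackgrass and wild buckwheat at 18/13 °C; scoring at about 14 days.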

POLCO (wild buckwheat) = assay: Pre-emergence herbicidal activity, cool season; type: in vivo, Polygonum convolvulus; settings: lowest tested rate with 80% or greater inhibition; rates 300, 100, 30, 10 g/ha; about 14 days
How it was run: as §1

[2] = system: BRAPP (broadleaf signalgrass); assay: Pre-emergence herbicidal activity, warm season; type: in vivo, Brachiaria platyphylla; settings: GR80 = lowest tested rate (300, 100, 30, 10 g/ha) with 80% or greater inhibition; approx. 14 days after treating; 30/21° C.
How it was run: as §7

STEME (common chickweed) = assay: Pre-emergence herbicidal activity, cool season; type: in vivo, Stellaria media; settings: lowest tested rate with 80% or greater inhibition; rates 300, 100, 30, 10 g/ha; about 14 days
How it was run: as §2

SETFA (giant foxtail) = assay: Pre-emergence herbicidal activity, warm season; type: in vivo, Setaria faberi; settings: GR80 = lowest tested rate (300, 100, 30, 10 g/ha) with 80% or greater inhibition; approx. 14 days after treating; 30/21° C.
How it was run: as §7

SASKR (russian thistle) = assay: Pre-emergence herbicidal activity, cool season; type: in vivo, Salsola kali; settings: lowest tested rate with 80% or greater inhibition; rates 300, 100, 30, 10 g/ha; about 14 days
How it was run: as §2

ABUTH (velvetleaf) = assay: Pre-emergence herbicidal activity, warm season; type: in vivo, Abutilon theophrasti; settings: GR80 = lowest tested rate (300, 100, 30, 10 g/ha) with 80% or greater inhibition; approx. 14 days after treating; 30/21° C.
Protocol: as §3, §4, §5, §6

[3] = system: SORHA (johnsongrass (seedling)); assay: Pre-emergence herbicidal activity, warm season; type: in vivo, Sorghum halepense; settings: GR80 = lowest tested rate (300, 100, 30, 10 g/ha) with 80% or greater inhibition; approx. 14 days after treating; 30/21° C.
How it was run: as §7

AMARE (redroot pigweed) = assay: Pre-emergence herbicidal activity, warm season; type: in vivo, Amaranthus retroflexus; settings: GR80 = lowest tested rate (300, 100, 30, 10 g/ha) with 80% or greater inhibition; approx. 14 days after treating; 30/21° C.
How it was run: as §2

LOLMG (annual ryegrass) = assay: Pre-emergence herbicidal activity, cool season; type: in vivo, Lolium multiflorum; settings: GR80 = lowest tested rate (300, 100, 30, 10 g/ha) with 80% or greater inhibition; approx. 14 days after treating; 18/13° C.
Protocol: as §3, §4, §5, §6

[4] = system: CHEAL (common lambsquarters); assay: Pre-emergence herbicidal activity, warm season; type: in vivo, Chenopodium album; settings: GR80 = lowest tested rate (300, 100, 30, 10 g/ha) with 80% or greater inhibition; approx. 14 days after treating; 30/21° C.
How it was run: as §2

SOLNI (black nightshade) = assay: Pre-emergence herbicidal activity, warm season; type: in vivo, Solanum nigrum; settings: GR80 = lowest tested rate (300, 100, 30, 10 g/ha) with 80% or greater inhibition; approx. 14 days after treating; 30/21° C.
How it was run: as §2

[5] = system: LAMPU (purple deadnettle); assay: Pre-emergence herbicidal activity, cool season; type: in vivo, Lamium purpureum; settings: lowest tested rate with 80% or greater inhibition; rates 300, 100, 30, 10 g/ha; about 14 days
How it was run: as §2

POROL (common purslane) = assay: Pre-emergence herbicidal activity, warm season; type: in vivo, Portulaca oleracea; settings: GR80 = lowest tested rate (300, 100, 30, 10 g/ha) with 80% or greater inhibition; approx. 14 days after treating; 30/21° C.
How it was run: as §2

[6] = system: PANMI (wild proso millet); assay: Pre-emergence herbicidal activity, warm season; type: in vivo, Panicum miliaceum; settings: GR80 = lowest tested rate (300, 100, 30, 10 g/ha) with 80% or greater inhibition; approx. 14 days after treating; 30/21° C.
How it was run: as §1

ALOMY (blackgrass) = assay: Pre-emergence herbicidal activity, cool season; type: in vivo, Alopecurus myosuroides; settings: GR80 = lowest tested rate (300, 100, 30, 10 g/ha) with 80% or greater inhibition; approx. 14 days after treating; 18/13° C.
How it was run: as §1

[7] = system: AGSST (creeping bentgrass); assay: Pre-emergence herbicidal activity, cool season; type: in vivo, Agrostis stolonifera; settings: GR80 = lowest tested rate (300, 100, 30, 10 g/ha) with 80% or greater inhibition; approx. 14 days after treating; 18/13° C.
How it was run: as §2

SETVI (green foxtail) = assay: Pre-emergence herbicidal activity, cool season; type: in vivo, Setaria viridis; settings: GR80 = lowest tested rate (300, 100, 30, 10 g/ha) with 80% or greater inhibition; approx. 14 days after treating; 18/13° C.
How it was run: as §2

[8] = system: GALAP (catchweed bedstraw); assay: Pre-emergence herbicidal activity, cool season; type: in vivo, Galium aparine; settings: lowest tested rate with 80% or greater inhibition; rates 300, 100, 30, 10 g/ha; about 14 days
How it was run: as §2

[9] = system: VERPE (creeping speedwell); assay: Pre-emergence herbicidal activity, cool season; type: in vivo, Veronica persicaria; settings: lowest tested rate with 80% or greater inhibition; rates 300, 100, 30, 10 g/ha; about 14 days
How it was run: as §2

SINAR (wild mustard) = assay: Pre-emergence herbicidal activity, cool season; type: in vivo, Sinapis arvensis; settings: lowest tested rate with 80% or greater inhibition; rates 300, 100, 30, 10 g/ha; about 14 days
How it was run: as §2

DATST (jimsonweed) = assay: Pre-emergence herbicidal activity, warm season; type: in vivo, Datura stramonium; settings: GR80 = lowest tested rate (300, 100, 30, 10 g/ha) with 80% or greater inhibition; approx. 14 days after treating; 30/21° C.
Protocol: as §3, §4, §5, §6

SORVU (shattercane) = assay: Pre-emergence herbicidal activity, warm season; type: in vivo, Sorghum vulgare; settings: GR80 = lowest tested rate (300, 100, 30, 10 g/ha) with 80% or greater inhibition; approx. 14 days after treating; 30/21° C.
How it was run: as §7

CONAR (field bindweed) = assay: Pre-emergence herbicidal activity, warm season; type: in vivo, Convolvulus arvensis; settings: GR80 = lowest tested rate (300, 100, 30, 10 g/ha) with 80% or greater inhibition; approx. 14 days after treating; 30/21° C.
Protocol: as §3, §4, §5, §6

Compound | Pre-emergence activity (GR80) DIGSA (DIGSA (large crabgrass)) [g/ha] | Pre-emergence activity (GR80) CIRAR [1] [g/ha] | Pre-emergence activity GR80, POLCO (POLCO (wild buckwheat)) [g/ha] | Pre-emergence activity (GR80) BRAPP [2] [g/ha] | Pre-emergence activity GR80, STEME (STEME (common chickweed)) [g/ha] | Pre-emergence activity (GR80) SETFA (SETFA (giant foxtail)) [g/ha] | Pre-emergence activity GR80, SASKR (SASKR (russian thistle)) | Pre-emergence activity (GR80) ABUTH (ABUTH (velvetleaf)) [g/ha] | Pre-emergence activity (GR80) SORHA [3] [g/ha] | Pre-emergence activity (GR80) AMARE (AMARE (redroot pigweed)) [g/ha] | Pre-emergence activity (GR80) CHEAL [4] [g/ha] | Pre-emergence activity (GR80) SOLNI (SOLNI (black nightshade)) [g/ha] | Pre-emergence activity GR80, LAMPU [5] [g/ha] | Pre-emergence activity (GR80) POROL (POROL (common purslane)) [g/ha] | Pre-emergence activity (GR80) PANMI [6] [g/ha] | Pre-emergence activity (GR80) ALOMY (ALOMY (blackgrass)) [g/ha] | Pre-emergence activity (GR80) AGSST [7] [g/ha] | Pre-emergence activity GR80, GALAP [8] | Pre-emergence activity GR80, VERPE [9] | Pre-emergence activity GR80, SINAR (SINAR (wild mustard)) | further results
CCCN(CC)C(=O)n1cnc(S(=O)(=O)C(F)(F)C(F)F)n1 [Example 63] | 300 | 300 | 300 | 300 | 30 | 100 | 30 g/ha | 300 | 100 | 100 | 100 | 300 | 30 | 300 | 100 | 300 | 10 | 30 g/ha | 30 g/ha | 30 g/ha | Pre-emergence activity (GR80) AVEFA (AVEFA (wild oat)): 300 g/ha; Pre-emergence activity (GR80) ECHCG (ECHCG (barnyardgrass)): 100 g/ha; Pre-emergence activity (GR80) LOLMG (LOLMG (annual ryegrass)): 100 g/ha; Pre-emergence activity (GR80) SETVI (SETVI (green foxtail)): 100 g/ha
CCN(CC)C(=S)n1cnc(S(=O)(=O)C(F)(F)Cl)n1 [Example 94] | 300 | 30 | 10 | 10 | 300 | 100 | [empty] | 100 | 300 | 10 | 30 | 100 | 300 | 30 | 100 | 10 | 300 | [empty] | [empty] | [empty] | Pre-emergence activity (GR80) DATST (DATST (jimsonweed)): 300 g/ha; Pre-emergence activity (GR80) SORVU (SORVU (shattercane)): 100 g/ha; Pre-emergence activity (GR80) CONAR (CONAR (field bindweed)): 100 g/ha
